# Patent US6207648A, “Methods of using cytochrome P450 reductase for the enhancement of P450-based anti-cancer gene therapy” (priority 1998, dated 2001)
# Legend:
# 9L-lacZ cells = assay: Bystander cytotoxicity in co-culture with lacZ-marked 9L cells; format: cell-based, rat; settings: 1 mM CPA, 5 days
# Description: CYP2B1^+ cells (FIG. 6A) and CYP2B1^+ RED^++ cells (FIG. 6C) were mixed with equal numbers of lacZ-marked 9L cells and cultured in the absence (FIGS. 6A and 6C) or in the presence (FIGS. 6B and 6D) of 1 mM CPA. Shown are 0.5% glutaraldehyde-fixed cells, 5 days after beginning drug treatment, stained with X-Gal for 4 hours to visualize the 9L-lacZ cells (dark staining).
# [1] = tested on: 9L tumors in female Fischer 344 rats; assay: In vivo cytotoxicity / tumor excision assay, s.c. 9L tumors; parameters: species or system rat
# Description: FIG. 9 is a graph depicting the results of an in vivo tumor excision assay, which quantitates the extent of CPA-induced tumor cell kill in rats in vivo for 9L tumors, compared to 9L tumors engineered to express P450 alone (CYP2B1^+) or P450 in combination with RED (CYP2B1^+ RED^+++).Female Fischer 344 rats were inoculated with parental 9L, CYP2B1^+, and CYP2B1^+ RED^+++ tumor cells by subcutaneous injection of 2×10^6 tumor cells/0.2 ml in the hindleg as described below in the "Materials and Methods" section of Example 1. At 2 weeks after tumor implantation, each animal received a single injection of CPA (50 or 100 mg/kg body weight) or saline as control. Twenty four hours later, tumors were excised, and single cell suspensions were prepared for assay of colony formation activity. Results are presented as mean survival fractions as compared to control groups, for 4 or 5 determinations; bars, standard error (SE).
# In vivo cytotoxicity assay: Tumor cells were grown subcutaneously as solid tumors in female Fischer 344 rats (120-150g). Each rat was inoculated by subcutaneous injection of one tumor cell line at the right thigh and a second tumor cell line at the left thigh at 2×10^6 cells/site. Rats were randomized and divided into three groups. One group was injected with saline as a control. The other two groups were treated with CPA at 50 mg/kg or 100 mg/kg body weight given as a single intraperitoneal injection 2 weeks after tumor implantation. At 24 hours after CPA injection, the rats were sacrificed and soaked briefly in 75% ethanol. The tumors were excised, suspended in DMEM, and minced under sterile conditions. […] The single cell suspensions were counted and plated at densities of 200, 2×10^3 and 2×10^4 cells/well of a 6-well plate, in duplicate, to determine cell viability by a colony formation assay. […] Cells were grown for 7 days and colonies (>50 cells) were then stained with crystal violet and counted. Results are expressed as the surviving fractions SEM of cells from drug treated groups compared to untreated controls.
# [2] = tested on: 9L/pBabe, 9L/2B6/reductase and 9L/2C18-Met/reductase tumors in scid mice; assay: Tumor growth delay assay in scid mice; format: in vivo, mouse
# Source text: FIGS. 19A-19D are graphs depicting the results of a tumor growth delay assay in severe combined immunodeficiency (scid) mice bearing 9L/pBabe, 9L/2B6/reductase, and 9L/2C18-Met/reductase solid tumors. Shown are the effects of CPA treatment on growth of 9L/pBabe tumors growing on the left flank of scid mice that also bear either a 9L/2B6/reductase tumor (FIG. 19A) or a 9L/2C18-Met/reductase tumor ((FIG. 19C)) on the right flank. Also shown are the effects of CPA on growth of 9L/2B6/reductase (FIG. 19B) or 9L/2C18-Met/reductasetumors ((FIG. 19D)) in these same mice. Tumor areas were measured twice a week with Vernier calipers. The arrows above the x-axis in each panel indicate the days on which CPA was given by intraperitoneal (i.p.) injection at 150 mg/kg, as described in the "Materials and Methods" section of Example 2. Data shown is mean tumor area (mm^2)±SEM for n=4 tumors per treatment group. Mice not treated with CPA died earlier than the CPA-treated mice, as indicated by the earlier decrease in number of remaining mice from n =4 (initial number of mice/group) to n=3, 2, or 1. Open circles indicate CPA-treated mice; closed circles indicate saline controls.
# Tumor Growth Delay Assay: Six week old male ICR/Fox Chase/outbred immunodeficient scid mice (Paine-Murrieta, G. D., et al., Cancer Chemother Pharmacol. 40:209-214 (1997)) (Taconic Farms, Germantown, N.Y.) weighing 26-31g were given subcutaneous tumor cell injections to form solid tumors. Tumor cells were grown in culture to approximately 75% confluency, harvested by trypsin digestion, washed in PBS, resuspended in fetal bovine serum-free DMEM at a concentration of 8×10^6 cells/ml and kept on ice. Mice were shaved on both hind flanks, and then were injected subcutaneously on the left flank with 4×10^6 9L/pBabe tumor cells, and on the right flank with 4×10^6 of either 9L/2B6/reductase or 9L/2C18-Met/reductase tumor cells (8 mice/group). Tumor cell injections were in a volume of 0.5 ml of serum-free DMEM using a 1/2 inch 27 g needle and 1 ml syringe. Tumor growth was monitored twice a week using Vernier calipers (Manostat Corp., Switzerland) to measure tumor area. On days 26 and 27 after tumor cell inoculation, 4 animals from each group (four 9L/pBabe:9L/2B6/reductase mice and four 9L/pBabe:9L/2C18-Met/reductase mice) received daily intraperitoneal injections of CPA at 150 mg/kg dissolved in 0.3 ml of 0.9% NaCl. The remaining animals received saline injections. Average tumor areas ranged from 80-145 mm^2 at the time of CPA injection. Mice were given a second course of CPA treatment (150 mg/kg×2 daily injections) beginning 24-29 days after the first CPA injection, as indicated in each experiment.
smiles,measurement,setting,value
"O=P1(N(CCCl)CCCl)NCCCO1 (stereo not shown) [CPA, cyclophosphamide]",bystander cytotoxicity of CYP2B1+ 9L cells toward CYP2B1- 9L cells,9L-lacZ cells,"substantial, albeit incomplete, bystander cytotoxicity"
same,bystander killing of 9L/lacZ cells by co-culture with CYP2B1+ RED+++ cells,9L-lacZ cells,near complete killing
same,elimination of CYP2B1+ and CYP2B1+ RED+++ cells,9L-lacZ cells; unstained cells,essentially eliminated
same,killing of CYP2B1+ tumors compared to wild type 9L tumors,"[1]; 100 mg/kg, 24 h",up to 10 fold
same,additional tumor cell killing in CYP2B1+ RED+++ tumors,[1]; 24 h after CPA,approximately 10 fold
same,overall increase in tumor cell kill in vivo over hepatic drug activation alone,[1]; CYP2B1 + RED,50-100 fold
same,growth delay of 2B6 and P450 reductase-transduced tumors,[2]; 150 mg/kg i.p.,> 50 days
same,growth inhibition of 9L/2C18-Met/reductase tumors,[2]; 150 mg/kg i.p.,"significant, albeit incomplete growth inhibition"
same,growth delay for 9L/pBabe tumors,"[2]; 2B6 experiment, first cycle 150 mg/kg i.p. x2, days 26 and 27",no growth delay
same,growth delay effect against 9L/pBabe control tumors,"[2]; 2B6 experiment, second cycle",modest growth delay effect
same,growth delay of 9L/pBabe control tumors,[2]; 2C18-Met experiment,5-6 days
same,growth delay in RED tumors,[2]; 9L/2B6/RED and 9L/2C18-Met/RED,25 to 50 days
same,host toxicity,[2]; CPA-treated scid mice,no apparent increase in host toxicity
same,growth delay without P450,[2]; control 9L tumors,5 to 6 days
same,growth of 9L/2B6/reductase tumors,[2]; first cycle 150 mg/kg i.p. x2,fully blocked
same,duration of anti-tumor effect in 9L/2B6/reductase tumors,[2]; second cycle,≥ 75 day after tumor inoculation
